The values below come from patent US8399676B2, “Piperidine derivatives” (Hoffman-La Roche Inc., priority 2009, dated 2013).

Structures can show the parent of a compound that is named as a salt.

The target of the test is T1, human HSL (Homo sapiens, UniProt Q05469).
T1 construct: generate a full length human HSL ORF with a 3′-His6 tag; His6 (C); made in house; host or cells: High 5 insect cells (baculovirus, pFast-BAC)
T1 sequence (Q05469 1-1076): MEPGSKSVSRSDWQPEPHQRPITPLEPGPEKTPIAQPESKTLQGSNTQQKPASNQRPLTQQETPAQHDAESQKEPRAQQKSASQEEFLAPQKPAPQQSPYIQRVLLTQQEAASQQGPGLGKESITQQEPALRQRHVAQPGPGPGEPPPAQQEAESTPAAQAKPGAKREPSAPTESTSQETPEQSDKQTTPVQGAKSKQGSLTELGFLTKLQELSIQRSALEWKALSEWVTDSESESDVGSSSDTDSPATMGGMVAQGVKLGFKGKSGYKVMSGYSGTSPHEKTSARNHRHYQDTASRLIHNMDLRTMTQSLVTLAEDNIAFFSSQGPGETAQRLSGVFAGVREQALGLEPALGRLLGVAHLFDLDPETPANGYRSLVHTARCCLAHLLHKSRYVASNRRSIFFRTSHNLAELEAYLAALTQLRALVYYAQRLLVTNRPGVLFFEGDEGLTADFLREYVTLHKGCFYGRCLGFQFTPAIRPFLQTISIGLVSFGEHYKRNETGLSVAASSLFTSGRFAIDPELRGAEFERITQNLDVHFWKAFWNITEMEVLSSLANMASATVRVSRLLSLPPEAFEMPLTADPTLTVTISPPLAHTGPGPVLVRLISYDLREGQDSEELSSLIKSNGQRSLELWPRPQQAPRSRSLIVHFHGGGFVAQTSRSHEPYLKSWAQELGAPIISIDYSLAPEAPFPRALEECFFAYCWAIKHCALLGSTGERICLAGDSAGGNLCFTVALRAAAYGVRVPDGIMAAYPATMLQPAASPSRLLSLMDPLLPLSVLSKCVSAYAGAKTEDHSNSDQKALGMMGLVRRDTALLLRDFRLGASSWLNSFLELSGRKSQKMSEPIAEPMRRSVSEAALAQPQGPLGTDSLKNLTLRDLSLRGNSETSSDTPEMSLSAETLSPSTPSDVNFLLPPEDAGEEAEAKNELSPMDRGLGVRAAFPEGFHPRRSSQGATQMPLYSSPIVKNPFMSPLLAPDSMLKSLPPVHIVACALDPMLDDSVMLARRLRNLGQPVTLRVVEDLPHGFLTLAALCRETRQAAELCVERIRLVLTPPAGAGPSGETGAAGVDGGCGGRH
Nature of the test: Human Hormone-Sensitive Lipase (HSL) enzyme inhibition assay (colorimetric, DMPT substrate). In kind it is biochemical. Conditions: read-out: HSL hum IC50. The gist of the method: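 Full-length human HSL carrying a C-terminal His6 tag was expressed in High 5 insect cells via baculovirus and purified on Ni-NTA. Compounds from 3-fold DMSO series were mixed with 1.5 mM DMPT substrate suspension in 100 mM MOPS pH 7.2 with 0.2 mg/ml fatty acid-free BSA, then enzyme (15 ug/ml) was added for 20 minutes at 37 °C. Released thiol was detected with DTNB plus SDS/Triton X-100 (15 minutes, room temperature) at 405 nm.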
Usually IC50 stands for the concentration that gives 50% inhibition. Turning to `CCc1ccc(NC(=O)C2(N)CCN(Cc3ccccc3C(F)(F)F)CC2)cc1` [Example 157, 4-Amino-1-(2-trifluoromethyl-benzyl)-piperidine-4-carboxylic acid (4-ethyl-phenyl)-amide], the IC50 turned out to be 0.18 µM.
With `CC(C)c1ccc(NC(=O)N2CCC(N)(C(=O)Nc3ccc(C(C)C)cc3)CC2)cc1` [Example 107, 4-Amino-piperidine-1,4-dicarboxylic acid bis-[(4-isopropyl-phenyl)-amide]; hydrochloride], the IC50 worked out at 0.08 µM.
Then `Cc1ccc(S(=O)(=O)N2CCC(O)(C(=O)Nc3ccc(C(C)(C)C)cc3)CC2)cc1` [Example 16, 4-Hydroxy-1-(toluene-4-sulfonyl)-piperidine-4-carboxylic acid (4-tert-butyl-phenyl)-amide], with 0.2 µM; and `CN(C(=O)C1(O)CCN(S(=O)(=O)c2ccccc2Cl)CC1)c1ccc(OC(F)(F)F)cc1` [Example 72, 1-(2-Chloro-benzenesulfonyl)-4-hydroxy-piperidine-4-carboxylic acid methyl-(4-trifluoromethoxy-phenyl)-amide], with 0.06 µM.
As for `CCc1ccc(NC(=O)C2(N)CCN(Cc3ccccc3OC(F)(F)F)CC2)cc1` [Example 156, 4-Amino-1-(2-trifluoromethoxy-benzyl)-piperidine-4-carboxylic acid (4-ethyl-phenyl)-amide], the 50% inhibitory concentration (IC50) was determined as 0.08 µM.
For `CC(C)c1ccc(NC(=O)C2(N)CCN(S(=O)(=O)c3ccccc3Cl)CC2)cc1` [Example 116, 4-Amino-1-(2-chloro-benzenesulfonyl)-piperidine-4-carboxylic acid (4-isopropyl-phenyl)-amide; hydrochloride], the IC50 stood at 0.04 µM.
On to `O=C(Nc1ccc(OC(F)(F)F)cc1)C1(O)CCN(S(=O)(=O)c2ccccc2Cl)CC1` [Example 10, 1-(2-Chloro-benzenesulfonyl)-4-hydroxy-piperidine-4-carboxylic acid (4-trifluoromethoxy-phenyl)-amide], for which the IC50 came out at 0.12 µM.
For `CCc1ccc(NC(=O)C2(N)CCN(Cc3ccccc3OC(F)F)CC2)cc1` [Example 155, 4-Amino-1-(2-difluoromethoxy-benzyl)-piperidine-4-carboxylic acid (4-ethyl-phenyl)-amide], the IC50 was 0.11 µM.
With `CC(C)c1ccc(NC(=O)C2(N)CCN(Cc3ccccc3OC(F)(F)F)CC2)cc1` [Example 113, 4-Amino-1-(2-trifluoromethoxy-benzyl)-piperidine-4-carboxylic acid (4-isopropyl-phenyl)-amide; hydrochloride], the IC50 turned out to be 0.08 µM.
With `CC(C)c1ccc(NC(=O)C2(N)CCN(S(=O)(=O)c3ccc(C(F)(F)F)cc3Cl)CC2)cc1` [Example 131, 4-Amino-1-(2-chloro-4-trifluoromethyl-benzenesulfonyl)-piperidine-4-carboxylic acid (4-isopropyl-phenyl)-amide], the IC50 worked out at 0.5 µM.
As to `CCc1cccc(NC(=O)C2(N)CCN(S(=O)(=O)c3ccccc3Cl)CC2)c1` [Example 92, 4-Amino-1-(2-chloro-benzenesulfonyl)-piperidine-4-carboxylic acid (3-ethyl-phenyl)-amide], the IC50 worked out at 0.86 µM.
On to `O=C(Nc1ccc(OC(F)(F)F)cc1)C1(O)CCN(S(=O)(=O)c2cccs2)CC1` [Example 57, 4-Hydroxy-1-(thiophene-2-sulfonyl)-piperidine-4-carboxylic acid (4-trifluoromethoxy-phenyl)-amide], for which the IC50 was 0.33 µM.
Then `CC(C)c1ccc(NC(=O)C2(N)CCN(Cc3cccc(F)c3)CC2)cc1` [Example 111, 4-Amino-1-(3-fluoro-benzyl)-piperidine-4-carboxylic acid (4-isopropyl-phenyl)-amide; hydrochloride], with 0.24 µM; and `CCCCc1ccc(S(=O)(=O)N2CCC(N)(C(=O)Nc3ccc(CC)cc3)CC2)cc1` [Example 141, 4-Amino-1-(4-butyl-benzenesulfonyl)-piperidine-4-carboxylic acid (4-ethyl-phenyl)-amide], with 0.09 µM.
With `C=Cc1ccc(NC(=O)C2(N)CCN(S(=O)(=O)c3ccccc3Cl)CC2)cc1` [Example 100, 4-Amino-1-(2-chloro-benzenesulfonyl)-piperidine-4-carboxylic acid (4-vinyl-phenyl)-amide], the IC50 was determined as 0.14 µM.
For `CC(C)(C)c1ccc(NC(=O)C2(O)CCN(Cc3ccccc3Cl)CC2)cc1` [Example 44], the 50% inhibitory concentration (IC50) is 0.08 µM.
Regarding `COc1ccc(Cl)cc1NC(=O)N1CCC(O)(C(=O)Nc2ccc(C(C)(C)C)cc2)CC1` [Example 50, 4-Hydroxy-piperidine-1,4-dicarboxylic acid 4-[(4-tert-butyl-phenyl)-amide] 1-[(5-chloro-2-methoxy-phenyl)-amide]], the IC50 amounted to 0.84 µM.
Then `CCc1ccc(NC(=O)C2(N)CCN(S(=O)(=O)c3ccccc3OC)CC2)cc1` [Example 137, 4-Amino-1-(2-methoxy-benzenesulfonyl)-piperidine-4-carboxylic acid (4-ethyl-phenyl)-amide], with 0.14 µM; and `CC(C)CS(=O)(=O)N1CCC(N)(C(=O)Nc2ccc(C(C)C)cc2)CC1` [Example 120, 4-Amino-1-(2-methyl-propane-1-sulfonyl)-piperidine-4-carboxylic acid (4-isopropyl-phenyl)-amide; hydrochloride], with 0.23 µM.
For the molecule `CCc1ccc(NC(=O)C2(N)CCN(S(=O)(=O)c3ccc(OC(F)(F)F)cc3)CC2)cc1` [Example 138, 4-Amino-1-(4-trifluoromethoxy-benzenesulfonyl)-piperidine-4-carboxylic acid (4-ethyl-phenyl)-amide], the IC50 was determined as 0.31 µM.
As for `CC(C)c1ccc(NC(=O)C2(N)CCN(Cc3ccccc3F)CC2)cc1` [Example 109, 4-Amino-1-(2-fluoro-benzyl)-piperidine-4-carboxylic acid (4-isopropyl-phenyl)-amide; hydrochloride], the half-maximal inhibitory concentration (IC50) was 0.08 µM.
For `CN(C(=O)C1(O)CCN(S(=O)(=O)c2cccs2)CC1)c1ccc(OC(F)(F)F)cc1` [Example 66, 4-Hydroxy-1-(thiophene-2-sulfonyl)-piperidine-4-carboxylic acid methyl-(4-trifluoromethoxy-phenyl)-amide], the IC50 worked out at 0.2 µM.
As for `CCc1ccc(NC(=O)C2(N)CCN(Cc3ccccc3C)CC2)cc1` [Example 152, 4-Amino-1-(2-methyl-benzyl)-piperidine-4-carboxylic acid (4-ethyl-phenyl)-amide], the IC50 was 0.12 µM.
In the case of `CCc1ccc(NC(=O)C2(N)CCN(S(=O)(=O)c3ccccc3)CC2)cc1` [Example 133, 4-Amino-1-benzenesulfonyl-piperidine-4-carboxylic acid (4-ethyl-phenyl)-amide], the IC50 was determined as 0.09 µM.
With `CC(C)CS(=O)(=O)N1CCC(O)(C(=O)Nc2ccc(OC(F)(F)F)cc2)CC1` [Example 54, 4-Hydroxy-1-(2-methyl-propane-1-sulfonyl)-piperidine-4-carboxylic acid (4-trifluoromethoxy-phenyl)-amide], the IC50 is 0.66 µM.
Then `O=C(c1ccc(F)cc1)N1CCC(O)(C(=O)Nc2ccc(OC(F)(F)F)cc2)CC1` [Example 11, 1-(4-Fluoro-benzoyl)-4-hydroxy-piperidine-4-carboxylic acid (4-trifluoromethoxy-phenyl)-amide], with 0.55 µM; and `O=C(CC1CCCC1)N1CCC(O)(C(=O)Nc2ccc(OC(F)(F)F)cc2)CC1` [Example 53, 1-(2-Cyclopentyl-acetyl)-4-hydroxy-piperidine-4-carboxylic acid (4-trifluoromethoxy-phenyl)-amide], with 0.79 µM.
Then `COC1(C(=O)Nc2ccc(C(C)(C)C)cc2)CCN(S(=O)(=O)c2ccccc2Cl)CC1` [Example 76, 1-(2-Chloro-benzenesulfonyl)-4-methoxy-piperidine-4-carboxylic acid (4-tert-butyl-phenyl)-amide], with 0.53 µM; and `CC(C)c1ccc(NC(=O)C2(N)CCN(S(=O)(=O)c3ccc(C(C)C)cc3)CC2)cc1` [Example 83, 4-Amino-1-(4-isopropyl-benzenesulfonyl)-piperidine-4-carboxylic acid (4-isopropyl-phenyl)-amide; hydrochloride], with 0.23 µM.
